{
  "source": "ChEMBL document CHEMBL5441381",
  "about": "“ASAP - In vitro antiviral effect” (2024)",
  "key": {"SARS-CoV-2 [1]": {"test_system": "SARS-CoV-2", "test": "(§1) Functional immunofluorescence assay to measure dose dependent changes in antiviral-drug inhibitory efficacy against hCoV-19/USA-WA1/2020 in HeLa-ACE2 cells which are seeded prior to drug treatment, then infected with hCoV-19/USA-WA1/2020. Cells are fixed with 10 % formaldehyde, washed with PBS, permeabilized with permeabilization buffer, then washed with wash buffer. The cells are incubated with nucleoprotein primary antibody IC7C7. Following primary staining, cells are washed with wash buffer and incubated in a solution of with Alexa fluor 488 and DAPI. Infected and uninfected cells are visualized and analyzed by Gen5 software. The assay has been performed by Icahn School of Medicine at Mount Sinai.", "type": "organism-based, Homo sapiens"}, "SARS-CoV-2 [2]": {"test_system": "SARS-CoV-2", "test": "as §1, with “iPSC-Pneumocyte” for “HeLa-ACE2”, “to” for “to drug”", "type": "organism-based, Homo sapiens", "details": "Severe acute respiratory syndrome coronavirus 2, Pneumocyte; for EC90: Baseline response 0 %, Maximum response 100 %"}, "[3]": {"details": "Severe acute respiratory syndrome coronavirus 2, HeLa-ACE2"}},
  "data": [
    {"smiles": "CC(C)[C@@H](Nc1ncnc2[nH]c(-c3cnn(C)c3)cc12)c1ccc2c(c1)S(=O)(=O)CCC2", "values": [
      {"measurement": "EC50", "setting": "SARS-CoV-2 [1]; [3]", "result": "> 20", "unit": "µM"},
      {"measurement": "EC90", "setting": "SARS-CoV-2 [1]; Severe acute respiratory syndrome coronavirus 2, HeLa-ACE2, Baseline response 0 %, Hill slope -10.363, Maximum measured 119.22 %, Maximum response 100 %, Minimum measured 72.714 %, R squared 0.37", "result": "> 20", "unit": "µM"},
      {"measurement": "EC50", "setting": "SARS-CoV-2 [2]", "result": 7.59, "unit": "µM"},
      {"measurement": "EC90", "setting": "SARS-CoV-2 [2]; Hill slope -0.905, Maximum measured 103.795 %, Minimum measured 0.206 %, R squared 0.828", "result": "> 50", "unit": "µM"}
    ]},
    {"smiles": "Cc1ncc(-c2cc3c(N[C@@H](c4ccc5c(c4)OCCO5)C(C)C)ncnc3[nH]2)cn1", "values": [
      {"measurement": "EC50", "setting": "SARS-CoV-2 [1]; [3]", "result": 4.51, "unit": "µM"},
      {"measurement": "EC90", "setting": "SARS-CoV-2 [1]; Severe acute respiratory syndrome coronavirus 2, HeLa-ACE2, Baseline response 0 %, Hill slope -0.659, Maximum measured 95.537 %, Maximum response 100 %, Minimum measured 29.329 %, R squared 0.973", "result": "> 20", "unit": "µM"},
      {"measurement": "EC90", "setting": "SARS-CoV-2 [1]; Severe acute respiratory syndrome coronavirus 2, HeLa-ACE2, Baseline response 0 %, Hill slope -1.195, Maximum measured 100.014 %, Maximum response 100 %, Minimum measured 14.25 %, R squared 0.982", "result": "> 20", "unit": "µM"},
      {"measurement": "EC50", "setting": "SARS-CoV-2 [1]; hela-ace2", "result": 4.51, "unit": "µM"},
      {"measurement": "EC50", "setting": "SARS-CoV-2 [2]", "result": 15.7, "unit": "µM"},
      {"measurement": "EC90", "setting": "SARS-CoV-2 [2]; EC90 CI (lower) 1.051 uM, EC90 CI (upper) 45.178 uM, Hill slope -2.659, Maximum measured 160.084 %, Minimum measured 9.251 %, R squared 0.626", "result": 36, "unit": "µM"}
    ]},
    {"smiles": "CC(C)[C@@H](Nc1ncnc2[nH]c(-c3cnn(CC(N)=O)c3)cc12)c1ccc2c(n1)OCCO2", "values": [
      {"measurement": "EC50", "setting": "SARS-CoV-2 [1]; [3]", "result": "> 20", "unit": "µM"},
      {"measurement": "EC90", "setting": "SARS-CoV-2 [1]; Severe acute respiratory syndrome coronavirus 2, HeLa-ACE2, Maximum measured 122.738 %, Minimum measured 101.22 %", "result": "> 20", "unit": "µM"},
      {"measurement": "EC50", "setting": "SARS-CoV-2 [2]", "result": "> 50", "unit": "µM"},
      {"measurement": "EC90", "setting": "SARS-CoV-2 [2]; Hill slope -0.097, Maximum measured 94.962 %, Minimum measured 56.467 %, R squared 0.078", "result": "> 50", "unit": "µM"}
    ]},
    {"smiles": "CNC(=O)Cn1cc(-c2cc3c(N[C@H](c4ccc5c(c4)S(=O)(=O)CCC5)C(C)C)ncnc3[nH]2)cn1", "values": [
      {"measurement": "EC50", "setting": "SARS-CoV-2 [1]; [3]", "result": "> 20", "unit": "µM"},
      {"measurement": "EC90", "setting": "SARS-CoV-2 [1]; Severe acute respiratory syndrome coronavirus 2, HeLa-ACE2, Baseline response 0 %, Hill slope 0.543, Maximum measured 108.143 %, Maximum response 100 %, Minimum measured 92.194 %, R squared 0.052", "result": "> 20", "unit": "µM"},
      {"measurement": "EC50", "setting": "SARS-CoV-2 [2]", "result": "> 50", "unit": "µM"},
      {"measurement": "EC90", "setting": "SARS-CoV-2 [2]; Hill slope -0.24, Maximum measured 106.027 %, Minimum measured 60.326 %, R squared 0.31", "result": "> 50", "unit": "µM"}
    ]},
    {"smiles": "CC(C)(C)[C@@H](Nc1ncnc2[nH]c(-c3cnn(CC(N)=O)c3)cc12)c1ccc2c(n1)OCCO2", "values": [
      {"measurement": "EC50", "setting": "SARS-CoV-2 [1]; [3]", "result": "> 20", "unit": "µM"},
      {"measurement": "EC90", "setting": "SARS-CoV-2 [1]; Severe acute respiratory syndrome coronavirus 2, HeLa-ACE2, Maximum measured 115.43 %, Minimum measured 93.464 %", "result": "> 20", "unit": "µM"},
      {"measurement": "EC50", "setting": "SARS-CoV-2 [2]", "result": 11.4, "unit": "µM"},
      {"measurement": "EC90", "setting": "SARS-CoV-2 [2]; Hill slope -0.772, Maximum measured 91.919 %, Minimum measured 11.328 %, R squared 0.786", "result": "> 50", "unit": "µM"}
    ]},
    {"smiles": "CC(C)[C@@H](Nc1ncnc2[nH]c(C(N)=O)cc12)c1ccc2c(c1)OCCO2", "values": [
      {"measurement": "EC50", "setting": "SARS-CoV-2 [1]; [3]", "result": "> 20", "unit": "µM"},
      {"measurement": "EC90", "setting": "SARS-CoV-2 [1]; Severe acute respiratory syndrome coronavirus 2, HeLa-ACE2, Maximum measured 95.443 %, Minimum measured 3.395 %", "result": "> 20", "unit": "µM"},
      {"measurement": "EC90", "setting": "SARS-CoV-2 [1]; Severe acute respiratory syndrome coronavirus 2, HeLa-ACE2, Maximum measured 108.483 %, Minimum measured 88.736 %", "result": "> 20", "unit": "µM"},
      {"measurement": "EC50", "setting": "SARS-CoV-2 [2]", "result": "> 50", "unit": "µM"},
      {"measurement": "EC90", "setting": "SARS-CoV-2 [2]; Hill slope -3.392, Maximum measured 162.718 %, Minimum measured 51.066 %, R squared 0.094", "result": "> 50", "unit": "µM"}
    ]},
    {"smiles": "CC(C)[C@@H](Nc1ncnc2[nH]c(-c3cnn(C)c3C#N)cc12)c1ccc2c(c1)S(=O)(=O)CCC2", "values": [
      {"measurement": "EC50", "setting": "SARS-CoV-2 [1]; [3]", "result": 3.51, "unit": "µM"},
      {"measurement": "EC90", "setting": "SARS-CoV-2 [1]; Severe acute respiratory syndrome coronavirus 2, HeLa-ACE2, Baseline response 0 %, EC90 CI (lower) 0.517 uM, EC90 CI (upper) 1.693 uM, Hill slope -1.661, Maximum measured 114.163 %, Maximum response 100 %, Minimum measured 4.545 %, R squared 0.935", "result": 13.2, "unit": "µM"},
      {"measurement": "EC50", "setting": "SARS-CoV-2 [2]", "result": 0.411, "unit": "µM"},
      {"measurement": "EC90", "setting": "SARS-CoV-2 [2]; EC90 CI (lower) 0.002 uM, EC90 CI (upper) 0.075 uM, Hill slope -0.637, Maximum measured 75.192 %, Minimum measured 0.111 %, R squared 0.781", "result": 13, "unit": "µM"}
    ]},
    {"smiles": "CC(C)[C@@H](Nc1ncnc2[nH]c(-c3cnn(C)n3)cc12)c1ccc2c(c1)OCCO2", "values": [
      {"measurement": "EC50", "setting": "SARS-CoV-2 [1]; [3]", "result": 5.33, "unit": "µM"},
      {"measurement": "EC90", "setting": "SARS-CoV-2 [1]; Severe acute respiratory syndrome coronavirus 2, HeLa-ACE2, Baseline response 0 %, Hill slope -0.7, Maximum measured 92.76 %, Maximum response 100 %, Minimum measured 27.109 %, R squared 0.91", "result": "> 20", "unit": "µM"},
      {"measurement": "EC90", "setting": "SARS-CoV-2 [1]; Severe acute respiratory syndrome coronavirus 2, HeLa-ACE2, Baseline response 0 %, Hill slope -0.882, Maximum measured 101.658 %, Maximum response 100 %, Minimum measured 24.481 %, R squared 0.934", "result": "> 20", "unit": "µM"},
      {"measurement": "EC50", "setting": "SARS-CoV-2 [1]; hela-ace2", "result": 6.65, "unit": "µM"},
      {"measurement": "EC50", "setting": "SARS-CoV-2 [2]", "result": 13.3, "unit": "µM"},
      {"measurement": "EC90", "setting": "SARS-CoV-2 [2]; EC90 CI (lower) 0.166 uM, EC90 CI (upper) 294.285 uM, Hill slope -3.414, Maximum measured 157.709 %, Minimum measured 4.934 %, R squared 0.471", "result": 25.3, "unit": "µM"}
    ]},
    {"smiles": "CC(C)[C@@H](Nc1ncnc2[nH]c(-c3cnn(CC(N)=O)c3)cc12)c1ccc2c(c1)OCCO2", "values": [
      {"measurement": "EC50", "setting": "SARS-CoV-2 [1]; [3]", "result": "> 50", "unit": "µM"},
      {"measurement": "EC90", "setting": "SARS-CoV-2 [1]; Severe acute respiratory syndrome coronavirus 2, HeLa-ACE2, Baseline response 0 %, Hill slope -10.038, Maximum measured 122.799 %, Maximum response 100 %, Minimum measured 73.654 %, R squared 0.191", "result": "> 50", "unit": "µM"},
      {"measurement": "EC50", "setting": "SARS-CoV-2 [2]", "result": 37.1, "unit": "µM"},
      {"measurement": "EC90", "setting": "SARS-CoV-2 [2]; Hill slope -4.011, Maximum measured 96.462 %, Minimum measured 23.083 %, R squared 0.242", "result": "> 50", "unit": "µM"}
    ]}
  ]
}
